Experimental data published in patent US20080171783A1, “COMPOSITIONS AND METHODS FOR TREATING HYPERPROLIFERATIVE DISEASE” (Migenix Inc., priority 2006, published 2008).
pIC50: −log10 of the molar value.

Key:
[1] = Cytotoxicity Huh-7 cells (MTS/PMS); type: cell-based; conditions: human, 3-day incubation
Description: Cytotoxicity of compounds for use in treating hyperproliferative diseases or disorders was tested in Huh-7 cells using tetrazolium salt MTS combined with the electron acceptor PMS in a 96-well format. Six doses of each compound was tested, starting at about 1.2 μM to 0.4 μM serially diluted in a final 1% DMSO solution in DMEM/F12 media. Terfenadine was used as a positive control. Cells were seeded at 2.5×10^5 cells/mL in each well of the 96-well plates in a final volume of 0.1 mL, and then incubated at 37° C. in the presence of 5% CO2 overnight. Compounds (in media) were added the following day and the treated cells were incubated another 3-days at 37° C. in the presence of 5% CO2. After the 3-day incubation, 20 μL of MTS/PMS (3-(4,5-dimethylthiazol-2-yl)-5-(3-carboxymethoxy-phenyl)-2-(4-sulfophenyl)-2H-tetrazolium) was added to each well. After about a one to four hour incubation of MTS/PMS at 37° C. and 5% CO2—that is, until an OD490 absorbance of ≧0.6 for the wells containing cells with media only, the level of cytotoxicity at each concentration was calculated. […] Dose response results from the cytotoxicity assay (CC50) are provided in Table 4 in comparison with IC50 data (from Table 2)

[2] = target: T1, human polymerase alpha (Homo sapiens, UniProt P09884); assay: Human polymerase alpha inhibition (Replizyme kit); type: biochemical; conditions: dose response
T1 construct: purchased Replizyme Ltd (Heslington, York, UK)
T1 sequence (P09884 1-1462): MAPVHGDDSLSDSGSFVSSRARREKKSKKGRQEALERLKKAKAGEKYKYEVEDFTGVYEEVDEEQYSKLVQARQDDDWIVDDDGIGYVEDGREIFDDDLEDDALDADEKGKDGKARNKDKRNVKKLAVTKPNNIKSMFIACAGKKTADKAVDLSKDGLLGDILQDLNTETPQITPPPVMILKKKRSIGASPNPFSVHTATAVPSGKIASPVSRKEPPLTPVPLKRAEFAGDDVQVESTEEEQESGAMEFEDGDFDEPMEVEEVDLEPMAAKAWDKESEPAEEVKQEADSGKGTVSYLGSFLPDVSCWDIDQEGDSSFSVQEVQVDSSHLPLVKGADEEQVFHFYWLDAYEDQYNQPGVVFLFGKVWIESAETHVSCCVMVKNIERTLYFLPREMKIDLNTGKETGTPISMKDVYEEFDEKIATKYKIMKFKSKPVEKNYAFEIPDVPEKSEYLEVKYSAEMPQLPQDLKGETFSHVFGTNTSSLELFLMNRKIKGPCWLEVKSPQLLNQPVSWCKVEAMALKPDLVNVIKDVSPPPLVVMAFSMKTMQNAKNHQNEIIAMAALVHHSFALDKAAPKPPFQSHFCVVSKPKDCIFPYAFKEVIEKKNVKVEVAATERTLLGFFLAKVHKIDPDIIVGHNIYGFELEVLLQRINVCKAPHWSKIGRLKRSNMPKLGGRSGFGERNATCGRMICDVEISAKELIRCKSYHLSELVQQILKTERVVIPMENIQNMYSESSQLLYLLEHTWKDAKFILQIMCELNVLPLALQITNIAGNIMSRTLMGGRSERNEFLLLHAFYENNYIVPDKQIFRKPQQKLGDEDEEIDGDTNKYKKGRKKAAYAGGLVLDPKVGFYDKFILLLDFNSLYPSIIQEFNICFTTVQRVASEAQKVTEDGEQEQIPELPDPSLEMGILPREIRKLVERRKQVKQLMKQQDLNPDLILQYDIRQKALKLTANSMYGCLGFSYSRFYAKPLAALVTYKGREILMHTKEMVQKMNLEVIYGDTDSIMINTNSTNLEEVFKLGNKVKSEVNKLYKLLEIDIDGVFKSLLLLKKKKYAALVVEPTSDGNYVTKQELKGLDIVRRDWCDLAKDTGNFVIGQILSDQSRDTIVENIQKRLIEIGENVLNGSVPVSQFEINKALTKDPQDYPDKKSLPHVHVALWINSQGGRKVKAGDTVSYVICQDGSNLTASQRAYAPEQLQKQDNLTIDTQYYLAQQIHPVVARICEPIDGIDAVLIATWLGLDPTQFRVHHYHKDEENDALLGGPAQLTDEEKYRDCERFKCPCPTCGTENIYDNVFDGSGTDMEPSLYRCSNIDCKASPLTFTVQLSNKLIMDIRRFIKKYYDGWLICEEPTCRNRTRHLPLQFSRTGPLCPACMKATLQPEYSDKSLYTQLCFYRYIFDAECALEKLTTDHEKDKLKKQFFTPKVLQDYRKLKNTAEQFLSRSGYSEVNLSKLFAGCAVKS
Description: (§1) Calf polymerase alpha and human polymerase alpha investigations were performed with a kit available from Replizyme Ltd (Heslington, York, UK).

[3] = target: T2, Calf polymerase alpha (Bos taurus, UniProt A0AAA9TD94); assay: Calf polymerase alpha inhibition (Replizyme kit); type: biochemical; conditions: for pIC50: dose response
T2 construct: purchased Replizyme Ltd (Heslington, York, UK)
T2 sequence (A0AAA9TD94 1-1441): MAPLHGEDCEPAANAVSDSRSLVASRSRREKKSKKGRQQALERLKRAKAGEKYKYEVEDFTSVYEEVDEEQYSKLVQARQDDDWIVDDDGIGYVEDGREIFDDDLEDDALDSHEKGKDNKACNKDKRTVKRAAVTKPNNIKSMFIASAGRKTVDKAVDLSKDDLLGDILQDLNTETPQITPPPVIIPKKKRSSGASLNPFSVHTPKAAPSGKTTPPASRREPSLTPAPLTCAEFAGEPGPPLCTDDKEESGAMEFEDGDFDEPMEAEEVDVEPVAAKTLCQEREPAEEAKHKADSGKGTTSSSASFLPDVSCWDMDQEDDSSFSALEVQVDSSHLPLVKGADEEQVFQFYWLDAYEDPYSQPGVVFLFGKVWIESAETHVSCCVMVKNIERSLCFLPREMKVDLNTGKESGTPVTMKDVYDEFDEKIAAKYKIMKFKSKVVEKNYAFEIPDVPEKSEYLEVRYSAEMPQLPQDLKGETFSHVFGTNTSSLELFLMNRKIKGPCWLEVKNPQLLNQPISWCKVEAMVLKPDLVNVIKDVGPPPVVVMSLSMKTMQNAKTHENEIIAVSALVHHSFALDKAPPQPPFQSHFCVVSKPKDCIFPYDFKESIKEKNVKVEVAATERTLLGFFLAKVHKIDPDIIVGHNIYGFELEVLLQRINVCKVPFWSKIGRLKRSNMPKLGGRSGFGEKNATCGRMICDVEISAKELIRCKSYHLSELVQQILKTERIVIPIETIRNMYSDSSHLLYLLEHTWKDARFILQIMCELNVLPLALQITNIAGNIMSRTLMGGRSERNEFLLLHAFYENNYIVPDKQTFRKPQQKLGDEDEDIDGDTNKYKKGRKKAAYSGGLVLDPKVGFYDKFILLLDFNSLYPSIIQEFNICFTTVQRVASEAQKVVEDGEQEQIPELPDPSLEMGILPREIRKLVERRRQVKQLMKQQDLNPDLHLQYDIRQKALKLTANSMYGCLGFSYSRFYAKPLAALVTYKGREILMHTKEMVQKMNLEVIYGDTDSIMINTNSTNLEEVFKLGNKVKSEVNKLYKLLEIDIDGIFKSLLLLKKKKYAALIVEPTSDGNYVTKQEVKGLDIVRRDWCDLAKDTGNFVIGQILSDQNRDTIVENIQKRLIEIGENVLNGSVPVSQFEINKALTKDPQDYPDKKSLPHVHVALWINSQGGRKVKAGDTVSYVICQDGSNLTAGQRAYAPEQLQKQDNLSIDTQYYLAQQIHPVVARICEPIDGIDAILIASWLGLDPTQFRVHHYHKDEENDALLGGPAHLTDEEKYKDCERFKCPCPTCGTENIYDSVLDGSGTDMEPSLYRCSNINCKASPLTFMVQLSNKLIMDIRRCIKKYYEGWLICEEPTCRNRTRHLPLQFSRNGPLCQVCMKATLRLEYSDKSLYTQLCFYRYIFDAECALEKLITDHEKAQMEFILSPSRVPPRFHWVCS
Description: as §1

[4] = at 10 μM, single point screening

Structure (SMILES)	pIC50 [2]	CC50 at 3 days [1] [µM]	inhibition at 10 µM [3, 4] [%]	pIC50 [3]	% Inhibition [3, 4] [%]
Cc1ccc(NC(=O)[C@@H](CCCCN)NC(=O)Nc2ccc(OCc3ccccc3)cc2)cc1 [Compound 172, (R)-6-AMINO-2-[3-(4-BENZYLOXY-PHENYL)-UREIDO]-HEXANOIC ACID P-TOLYLAMIDE]	–	26	60	5.14	–
NCCCC[C@H](NC(=O)OCC1c2ccccc2-c2ccccc21)C(=O)Nc1ccc(CN)cc1 [Compound 228, (S)-[5-AMINO-1-(4-AMINOMETHYL-PHENYLCARBAMOYL)-PENTYL]-CARBAMIC ACID 9H-FLUOREN-9-YLMETHYL ESTER]	–	36.7	–	5.26	–
CC1CCC(NC(=O)[C@H](CCCCN)NC(=O)Nc2ccc(OCc3ccccc3)cc2)CC1 (stereo partly drawn) [Compound 264, (S)-6-AMINO-2-[3-(4-BENZYLOXY-PHENYL)-UREIDO]-HEXANOIC ACID (4-METHYL-CYCLOHEXYL)-AMIDE]	–	26.6	41	4.80	35
NCCCC[C@H](NC(=O)Nc1ccc(OCc2ccccc2)cc1)C(=O)NCc1ccco1 [Compound 302, (S)-6-AMINO-2-[3-(4-BENZYLOXY-PHENYL)-UREIDO]-HEXANOIC ACID (FURAN-2-YLMETHYL)-AMIDE]	4.14	> 100	5	< 4.52	–
Cc1ccc(NC(=O)[C@H](CCCCN)NC(=O)CNc2ccc(Oc3ccccc3)cc2)cc1 [Compound 368, (S)-6-AMINO-2-[2-(4-PHENOXY-PHENYLAMINO)-ACETYLAMINO]-HEXANOIC ACID P-TOLYLAMIDE]	–	58	–	5.22	–

Second part, led by results:

pIC50 [2]	Structure (SMILES)	CC50 at 3 days [1] [µM]	inhibition at 10 µM [3, 4] [%]	pIC50 [3]	% Inhibition [3, 4] [%]
5.82	NCCCC[C@H](NC(=O)Nc1ccc(-c2ccccc2)cc1)C(=O)Nc1ccc(C2CCCCC2)cc1 [Compound 119, (S)-6-AMINO-2-(3-BIPHENYL-4-YL-UREIDO)-HEXANOIC ACID (4-CYCLOHEXYL-PHENYL)-AMIDE]	12.2	102	5.82	–
5.52	Cc1ccc(NC(=O)[C@H](CCCCN)NC(=O)Nc2ccc3c(c2)Cc2ccccc2-3)cc1 [Compound 125, (S)-6-AMINO-2-[3-(9H-FLUOREN-2-YL)-UREIDO]-HEXANOIC ACID P-TOLYLAMIDE]	9.7	100	5.55	–
5.10	Cc1ccc(NC(=O)C[C@H](CCCCN)NC(=O)Nc2ccc(OCc3ccccc3)cc2)cc1 [Compound 246, (S)-7-AMINO-3-[3-(4-BENZYLOXY-PHENYL)-UREIDO]-HEPTANOIC ACID P-TOLYLAMIDE]	45.9	46.6	5.01	–
4.17	Cc1ccc(NC(=O)[C@H](CCCCN)NC(=O)Nc2ccc(OCc3ccccn3)cc2)cc1 [Compound 299, (S)-6-AMINO-2-{3-[4-(PYRIDIN-2-YLMETHOXY)-PHENYL]-UREIDO}-HEXANOIC ACID P-TOLYLAMIDE]	> 100	16	< 4.52	–
